Peptide text beside a SMILES is read from it. * marks the point of attachment. Cbz = O=C(OCc1ccccc1)*
Legend:
H1299 E1 cells [1] = assay: ROS assessment by hydroethidine FACS, control cells; format: cell-based; conditions: 5 μM PonA 48 h
Protocol: (§1) FIG. 4B, FACS analysis for ROS assessment by the fluorescence produced from the oxidation of hydroethidine in D1 and E1 cells; 48 h after PonA treatment, cells were treated for 5 h with 0.5 and 1.0 mM H2O2 and oxidative stress was measured; % positive refers to the fraction of fluorescent cells, indicating ROS. These experiments were repeated three times with similar results.
(§2) A similar experiment was performed with p53 and Fhit negative lung cancer-derived H1299 D1 and E1 clones carrying PonA-inducible FHIT and empty vector expression plasmids, respectively; the cells were treated with 5 μM PonA and at 48 h treated with 0.5 and 1.0 mM H2O2; the % ROS-positive cells was higher in Fhit-positive D1 cells than in E1 control cells (20 versus 3.5% at 0.5 mM H2O2, and 78 versus 25% at 1.0 mM H2O2, respectively) (FIG. 4B).
(§3) Assessment of Intracellular Reactive Oxygen Species (ROS)—Intracellular superoxide was measured through ethidium fluorescence as a result of oxidation by hydroethidine (dihydroethidium-HE; Molecular Probes). […] Fluorescence was measured by flow cytometry. […] DCF fluorescence was measured by flow cytometry on a FAC-Scan flow cytometer and fluorescence microscopy.

[2] = test system: A549 cells transiently expressing Fhit; assay: Intracellular superoxide (ROS) by hydroethidine FACS, FHIT plasmid-transfected cells; format: cell-based, human
Protocol: (§4) FIG. 4A, fluorescence-activated cell sorter (FACS) analysis for ROS assessment in A549 cells 48 h after transfection with FHIT plasmid, with and without a 5-h H2O2 treatment. Empty vector-transfected cells served as control. Intracellular superoxide was determined according to the fluorescence of ethidium as a result of oxidation of hydroethidine by O2. M2 refers to the fraction of ROS positive cells.
(§5) The inventors herein then investigated determine whether ROS production could be involved in Fhit-mediated apoptosis. […] The inventors examined ROS production in A549 cells, with and without H2O2 treatment, after transient transfection with the FHIT expression plasmid. Intracellular superoxide was assessed by measuring ethidium fluorescence, as a result of oxidation of hydroethydine by superoxide. Intracellular superoxide was measured 5 h after stimulation with increasing concentrations of H2O2.
(§6) Assessment of Intracellular Reactive Oxygen Species (ROS)—Intracellular superoxide was measured through ethidium fluorescence as a result of oxidation by hydroethidine (dihydroethidium-HE; Molecular Probes). MNK74 stably Fhit expressing cells, A549 cells transiently expressing Fhit, and H1299 inducible Fhit expressing cells were treated with 0.5, 1.0, 2.0, and 4.0 mM H2O2 at 37° C.; 4 h later, hydroethidine (10 μM) was added to cells and incubated for 15 min at 37° C. Fluorescence was measured by flow cytometry. Dichlorofluorescein diacetate (DCFH-DA) (Molecular Probes) was used in D1 cells expressing induced Fhit, stressed with H2O2 (0.1 to 1.0 mM), treated with 10 μM DCFH-DA, and incubated for 1 h at 37° C. DCF fluorescence was measured by flow cytometry on a FAC-Scan flow cytometer and fluorescence microscopy.

H1299 D1 cells [3] = assay: Flow cytometry (propidium iodide) of PonA-induced Fhit-expressing cells; format: cell-based; conditions: for sub-G1 population: 48 h
Protocol: (§8) FIG. 4E, FACS analysis of D1 and E1 cell cycle kinetics at 48 h after oxidative stress treatment. Cells were treated with PonA for 48 h and then with increasing concentrations of H2O2 (0.25 and 0.5 mM) for 4 h. Analysis was at 48 h after H2O2 treatment. All experiments were performed twice in triplicate.
(§9) FIG. 6C and FIG. 6D, the graphs show representative results of flow cytometry analyses of E1 and D1 cells. Cells were treated with PonA for 48 h and then with paclitaxel (50-500 ng/ml) (FIG. 6C) or cisplatin (0.05-0.2 mM) (FIG. 6D). Each data point was measured in triplicate at 24, 48, and 72 h (data shown for 48 h).
(§10) PonA-induced H1299 D1 and E1 cells were treated with 0.25 and 0.5 mM H2O2 or with chemotherapeutic drugs and incubated for varying times, as indicated in the text and figures. For both experiments the cells were collected, washed with phosphate-buffered saline, and resuspended in cold 70% ethanol. For analysis, cells were spun down, washed in phosphate-buffered saline, and suspended in 0.1 mg/ml propidium iodide/Triton X-100 staining solution (0.1% Triton X-100, 0.2 mg/ml DNase-free RNase A) for 30 min at room temperature and analyzed by flow cytometry.

MKN74A116 cells = assay: ROS assessment in gastric cancer cells expressing exogenous Fhit; format: cell-based, human; conditions: Fhit-expressing MKN74 cells, 2 mM H2O2, 5 hr
Protocol: FIG. 10. TABLE 2, Fhit induces generation of ROS in MKN74 gastric cancer cells. ROS assessment was performed with MKN74A116, a human gastric cancer cell line carrying a p53 mutant allele and expressing exogenous Fhit; Fhit-negative MKN74E4 cells were used as a control. To induce ROS generation, we treated MKN74 cells for 5 hr with 0.5, 1.0 and 2.0 mM H2O2. […] Numbers report the average of four experiments ±S.E.
as §6

[4] = test system: A549 cells (empty vector); assay: Intracellular superoxide (ROS) by hydroethidine FACS, empty vector-transfected cells; format: cell-based, human
Protocol: as §4, §5, §6

H1299 E1 cells [5] = assay: Flow cytometry (propidium iodide) of PonA-treated Fhit-negative control cells; format: cell-based; conditions: for sub-G1 population: 48 h
Protocol: as §8, §9, §10

H1299/D1 cells = assay: Colony formation assay; format: cell-based; conditions: Fhit-expressing cells, 0.25 mM or higher H2O2, 5-h treatment
Protocol: FIG. 4F, colony formation assay of H1299/D1 and H1299/E1 cells after […] PonA stimulation and a 5-h H2O2 treatment at the indicated concentrations.

H1299 D1 and E1 cells = assay: MTS cell viability assay, D1 compared with E1 cells; conditions: for sensitivity of D1 cells relative to E1 cells (MTS cell viability): after induction of Fhit expression, paclitaxel 50-500 ng/ml or cisplatin 0.05-0.2 mM, 24 or 48 h
Protocol: FIG. 4D, MTS cell viability assays were performed on E1 and D1 cells. Cells were treated with PonA for 48 h and then with increasing concentrations of H2O2 (0.125, 0.25, and 0.5 mM) for 4 h. Analysis was at 24 h after H2O2 treatment. Columns report the average of four experiments ±S.E. Each point was measured in quadruplicate and standard deviation calculated; p<0.05 was considered significant.
MTS assays performed on E1 and D1 cells. Cells were treated with PonA for 48 h and then treated with paclitaxel (50-500 ng/ml) (FIG. 6A) or cisplatin (0.05-0.2 mM) (FIG. 6B) for 24 or 48 h.
Chemotherapeutic Drug Treatment—Paclitaxel (Sigma) was dissolved in DMSO as a 10 mmol/liter stock solution and stored at −80° C. Cisplatin (Sigma) was dissolved in water and freshly prepared before use. H1299 D1 and E1 cells were seeded (1×10^4 cells/well) in 96-well culture plates, PonA-induced, and after 24 h treated with paclitaxel (50, 100, and 500 ng/ml) or cisplatin (0.05, 0.1, and 0.2 mM). H1299 D1 and E1 cells PonA-induced were incubated for 24, 48, and 72 h and assessed for viability with an MTS kit (Cell Titer 96® Aqueous MTS kit, Upstate Biotechnology, Lake Placid, N.Y.), as recommended by the manufacturer.

H1299 D1 cells [6] = assay: ROS assessment by hydroethidine FACS, Fhit-positive cells; format: cell-based; conditions: 5 μM PonA 48 h
Protocol: as §1, §2, §3

Fdxr in D1 and E1 cells = assay: Immunoblot of Fdxr protein level after proteasome inhibition; format: cell-based; conditions: 4 h after MG132 treatment (25 μA)
Protocol: FIG. 5B, immunoblot analysis of Fdxr expression in D1 and E1 cells after a 4-h treatment with 25 μA MG132, a proteasome inhibitor.
(§7) Western Blot Analysis—Immunoblot analyses were performed as described (13) using monoclonal anti-pentaHis (Qiagen); rabbit polyclonal anti-Fhit (Zymed Laboratories Inc.); rabbit polyclonal antisera against GFP, Hsp60, Hsp10, and cytochrome c (Santa Cruz Biotechnology); rabbit polyclonal anti-Fdxr (Abcam); monoclonal anti-CoxIV (Molecular Probes); anti-V5 (Sigma); anti-Parp1 (Santa Cruz Biotechnology); and anti-caspase 3 (Cell Signaling). Protein levels were normalized relative to β-actin or/and GAPDH^3 level, detected with appropriate antisera (Santa Cruz Biotechnology).

PonA-induced D1 cells = assay: Immunoblot of caspase 3 and Parp1 cleavage; format: cell-based; conditions: 48 h; paclitaxel 50 and 100 ng/ml, cisplatin 0.05 and 0.1 mM; compared with untreated cells
Protocol: FIG. 6E, caspase 3 and Parp1 cleavage: immunoblot analyses, using Fhit, caspase 3, and Parp1 antisera, of total cell lysates from PonA-induced D1 cells after 48 h of treatment with paclitaxel (50 and 100 ng/ml) or cisplatin (0.05 and 0.1 mM). GAPDH served as loading control.
At 24 and 72 h (data not shown) increased sub-G1 populations in D1 compared with E1 cells were also detected. To determine whether the sub-G1 fractions of D1 cells represented apoptotic cells, lysates were prepared from drug-treated cells at 48 h and immunoblot analysis performed for caspase 3 and Parp1 cleavage (FIG. […]).
as §7

Question: How did the “% ROS-positive cells” value (H1299 E1 cells [1]; 0.5 mM H2O2) turn out when `OO` [H2O2] was run?
Answer: 3.5%

Question: What about the “% ROS-positive cells” value (H1299 E1 cells [1]; 1.0 mM H2O2) of the same compound?
Answer: 25%

Question: And the “ROS generation (fraction of ROS positive cells)” value ([2]; FHIT-transfected A549, 0.5 mM H2O2, 5 h)?
Answer: 16.7%

Question: And the “ROS generation (fraction of ROS positive cells)” value ([2]; FHIT-transfected A549, 1.0 mM H2O2, 5 h)?
Answer: 18.8%

Question: And the toxicity to cells ([2]; Fhit-expressing A549, 2 mM H2O2)?
Answer: toxic

Question: What about the G2/M arrest (H1299 D1 cells [3]; 48 h after 0.25 mM H2O2) of the same compound?
Answer: 45.5%

Question: And the G2/M arrest (H1299 D1 cells [3]; 48 h after 0.5 mM H2O2)?
Answer: 49.5%

Question: And the toxicity to cells (MKN74A116 cells)?
Answer: toxicity was observed

Question: What about the “ROS generation (fraction of ROS positive cells)” value ([4]; empty vector A549, 0.5 mM H2O2, 5 h) of the same compound?
Answer: 5.4%

Question: And the “ROS generation (fraction of ROS positive cells)” value ([4]; empty vector A549, 1.0 mM H2O2, 5 h)?
Answer: 7.7%

Question: And the toxicity to cells ([4]; non-expressing A549, 2 mM H2O2)?
Answer: not to non-expressing cells

Question: And the G2/M arrest (H1299 E1 cells [5]; 48 h after 0.25 mM H2O2)?
Answer: 27.5%

Question: And the G2/M arrest (H1299 E1 cells [5]; 48 h after 0.5 mM H2O2)?
Answer: 29%

Question: What about the colony formation (H1299/D1 cells) of the same compound?
Answer: No colonies were detected

Question: And the “cell viability (MTS cytotoxicity assay)” value (H1299 D1 and E1 cells; 24 h after H2O2 treatment (0.125, 0.25, 0.5 mM, 4 h))?
Answer: reduced cell viability or growth arrest in both E1 and D1 cells, but this phenotype was more pronounced in D1 cells

Question: And the “% ROS-positive cells” value (H1299 D1 cells [6]; 0.5 mM H2O2)?
Answer: 20%

Question: What about the “% ROS-positive cells” value (H1299 D1 cells [6]; 1.0 mM H2O2) of the same compound?
Answer: 78%

Question: Which “Fdxr protein level in D1 cells compared with E1 cells” value (Fdxr in D1 and E1 cells) does the source give for `CC(C)C[C@@H](C=O)NC(=O)[C@H](CC(C)C)NC(=O)[C@H](CC(C)C)NC(=O)OCc1ccccc1` [MG132] (Cbz-Leu-Leu-Leu-aldehyde) here?
Answer: significant increase

Question: What does the source list for `N.N.[Cl][Pt][Cl]` [cisplatin, Cisplatin]?
Answer: sub-G1 population (H1299 D1 cells [3]; cisplatin 0.05 mM): 5%; sub-G1 population (H1299 D1 cells [3]; cisplatin 0.1 mM): 16.2%; sub-G1 population (H1299 D1 cells [3]; cisplatin 0.2 mM): 30%; sub-G1 population (H1299 E1 cells [5]; cisplatin 0.05 mM): 2.3%; sub-G1 population (H1299 E1 cells [5]; cisplatin 0.1 mM): 7%; sub-G1 population (H1299 E1 cells [5]; cisplatin 0.2 mM): 14.6%; sensitivity of D1 cells relative to E1 cells (MTS cell viability) (H1299 D1 and E1 cells): more sensitive; activated caspase 3 and related Parp1 cleavage (PonA-induced D1 cells): observed

Question: Which sub-G1 population (H1299 D1 cells [3]; paclitaxel 50 ng/ml) does the source give for `CC(=O)O[C@H]1C(=O)[C@@]2(C)[C@H]([C@H](OC(=O)c3ccccc3)[C@]3(O)C[C@H](OC(=O)[C@H](O)[C@@H](NC(=O)c4ccccc4)c4ccccc4)C(C)=C1C3(C)C)[C@]1(OC(C)=O)CO[C@@H]1C[C@@H]2O` [paclitaxel, Paclitaxel] here?
Answer: 9.6%

Question: And the sub-G1 population (H1299 D1 cells [3]; paclitaxel 100 ng/ml)?
Answer: 36%

Question: And the sub-G1 population (H1299 D1 cells [3]; paclitaxel 500 ng/ml)?
Answer: 40%

Question: What about the sub-G1 population (H1299 E1 cells [5]; paclitaxel 50 ng/ml) of the same compound?
Answer: 4%

Question: What about the sub-G1 population (H1299 E1 cells [5]; paclitaxel 100 ng/ml) of the same compound?
Answer: 16.7%

Question: And the sub-G1 population (H1299 E1 cells [5]; paclitaxel 500 ng/ml)?
Answer: 30%

Question: And the “sensitivity of D1 cells relative to E1 cells (MTS cell viability)” value (H1299 D1 and E1 cells)?
Answer: more sensitive

Question: And the “activated caspase 3 and related Parp1 cleavage” value (PonA-induced D1 cells)?
Answer: observed

From US8911998B2, “Methods for identifying fragile histidine triad (FHIT) interaction and uses thereof” (priority 2007, dated 2014)
